For 13 compounds, IC50 results are on record in US20220169643A1, “ESTROGEN RECEPTOR DEGRADING PROTACS” (AstraZeneca AB, priority 2019, published 2022).

This assay concerns the target T1, Estrogen Receptor Alpha Ligand binding domain (ER alpha-LBD (GST)) (Homo sapiens, UniProt P03372).
T1 construct: made in house
T1 sequence (P03372 307-554): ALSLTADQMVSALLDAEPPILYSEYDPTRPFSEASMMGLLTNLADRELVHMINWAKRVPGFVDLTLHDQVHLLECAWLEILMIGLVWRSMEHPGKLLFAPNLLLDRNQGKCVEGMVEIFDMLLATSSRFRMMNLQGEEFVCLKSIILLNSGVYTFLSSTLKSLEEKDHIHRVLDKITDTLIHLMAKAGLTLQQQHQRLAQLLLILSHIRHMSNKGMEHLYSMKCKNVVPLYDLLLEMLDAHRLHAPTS
Description: ERα Binding Assay (LanthaScreen TR-FRET competition). The following applies: competitive displacement of Fluormone ES2 tracer from recombinant human ER alpha-LBD (residues 307-554), 4 hours at room temperature. As to the method:
The ability of compounds to bind to isolated Estrogen Receptor Alpha Ligand binding domain (ER alpha-LBD (GST)) was assessed in competition assays using a LanthaScreen™ Time-Resolved Fluorescence Resonance Energy Transfer (TR-FRET) detection end-point. For the LanthaScreen TR-FRET endpoint, a suitable fluorophore (Fluormone ES2, ThermoFisher, Product code P2645) and recombinant human Estrogen Receptor alpha ligand binding domain, residues 307-554 (expressed and purified in-house) were used to measure compound binding. The assay principle is that ER alpha-LBD (GST) is added to a fluorescent ligand to form a receptor/fluorophore complex. A terbium-labelled anti-GST antibody (Product code PV3551) is used to indirectly label the receptor by binding to its GST tag, and competitive binding is detected by a test compound's ability to displace the fluorescent ligand, resulting in a loss of TR-FRET signal between the Th-anti-GST antibody and the tracer. The assay was performed as follows with all reagent additions carried out using the Beckman Coulter BioRAPTR FRD microfluidic workstation: • 1. Acoustic dispense 120 nL of the test compound into a black low volume 384 well assay plates. • 2. Prepare 1×ER alpha-LBD/Tb-anti-GST Ab in ES2 screening buffer and incubate for 15 minutes. • 3. Dispense 6 μL of the 1×[…]/Th-anti-GST Ab reagent into each well of the assay plate followed by 6 μL of Fluorophore reagent into each well of the assay plate • 4. Cover the assay plate to protect the reagents from light and evaporation, and incubate at room temperature for 4 hours. • 5. Excite at 337 nm and measure the fluorescent emission signal of each well at 490 nm and 520 nm using the BMG PheraSTAR.
Compounds were dosed directly from a compound source microplate containing serially diluted compound (4 wells containing 10 mM, […] and 10 nM final compound respectively) to an assay microplate using the Labcyte Echo 550. The Echo 550 is a liquid handler that uses acoustic technology to perform direct microplate-to-microplate transfers of DMSO compound solutions and the system can be programmed to transfer multiple small nL volumes of compound from the different source plate wells to give the desired serial dilution of compound in the assay which is then back-filled to normalise the DMSO concentration across the dilution range.
In total 120 nL of compound plus DMSO were added to each well and compounds were tested in a 12-point concentration response format over a final compound concentration range of 10, 2.917, 1.042, 0.2083, 0.1, 0.0292, 0.0104, 0.002083, 0.001, 0.0002917, 0.0001042, and 0.00001 μM respectively. TR-FRET dose response data obtained with each compound was exported into a suitable software package (such as Origin or Genedata) to perform curve fitting analysis. Competitive ER alpha binding was expressed as an IC50 value. This was determined by calculation of the concentration of compound that was required to give a 50% reduction in tracer compound binding to ER alpha-LBD.

A word on the IC50: it is the concentration that gives 50% inhibition.

For `C[C@@H]1Cc2c([nH]c3ccccc23)[C@@H](c2cnc(N3CCC(CCCN4CCN(c5ccc6c(c5)CN(C5CCC(=O)NC5=O)C6=O)CC4)CC3)nc2)N1CC(C)(C)F` (stereo partly drawn) [Example 8, 3-(5-{4-[3-(1-{5-[(1R,3R)-2-(2-fluoro-2-methylpropyl)-3-methyl-2,3,4,9-tetrahydro-1H-beta-carbolin-1-yl]pyrimidin-2-yl}piperidin-4-yl)propyl]piperazin-1-yl}-1-oxo-1,3-dihydro-2H-isoindol-2-yl)piperidine-2,6-dione], the IC50 amounted to 4.3 nM.

Regarding `C[C@@H]1Cc2c([nH]c3ccccc23)[C@@H](c2cnc(N3CCC4(CCN(CC5CCN(c6ccc7c(c6)CN(C6CCC(=O)NC6=O)C7=O)CC5)CC4)CC3)nc2)N1CC(C)(C)F` (stereo partly drawn) [Example 9, 3-(5-{4-[(9-{5-[(1R,3R)-2-(2-fluoro-2-methylpropyl)-3-methyl-2,3,4,9-tetrahydro-1H-beta-carbolin-1-yl]pyrimidin-2-yl}-3,9-diazaspiro[5.5]undecan-3-yl)methyl]piperidin-1-yl}-1-oxo-1,3-dihydro-2H-isoindol-2-yl)piperidine-2,6-dione], the IC50 turned out to be 8.7 nM.

Regarding `C[C@@H]1Cc2c([nH]c3ccccc23)[C@@H](c2cnc(N3CCC4(CCN(CCC5CCN(c6ccc7c(c6)CN(C6CCC(=O)NC6=O)C7=O)CC5)CC4)CC3)nc2)N1CC(C)(C)F` (stereo partly drawn) [Example 10, 3-(5-{4-[2-(9-{5-[(1R,3R)-2-(2-fluoro-2-methylpropyl)-3-methyl-2,3,4,9-tetrahydro-1H-beta-carbolin-1-yl]pyrimidin-2-yl}-3,9-diazaspiro[5.5]undecan-3-yl)ethyl]piperidin-1-yl}-1-oxo-1,3-dihydro-2H-isoindol-2-yl)piperidine-2,6-dione], the IC50 came out at 22.3 nM.

Regarding `C[C@@H]1Cc2c([nH]c3ccccc23)[C@@H](c2cnc(N3CCC(CCN4CCC5(CC4)CCN(c4ccc6c(c4)CN(C4CCC(=O)NC4=O)C6=O)CC5)CC3)nc2)N1CC(C)(C)F` (stereo partly drawn) [Example 11, 3-(5-{9-[2-(1-{5-[(1R,3R)-2-(2-fluoro-2-methylpropyl)-3-methyl-2,3,4,9-tetrahydro-1H-beta-carbolin-1-yl]pyrimidin-2-yl}piperidin-4-yl)ethyl]-3,9-diazaspiro[5.5]undecan-3-yl}-1-oxo-1,3-dihydro-2H-isoindol-2-yl)piperidine-2,6-dione], the IC50 was found to be 1.2 nM.

With `COc1cc(N2CCN(CCC3CCN(c4ncc([C@@H]5c6[nH]c7ccccc7c6C[C@@H](C)N5CC(C)(C)F)cn4)CC3)CC2)cc2c1C(=O)N(C1CCC(=O)NC1=O)C2` (stereo partly drawn) [Example 12, 3-(5-{4-[2-(1-{5-[(1R,3R)-2-(2-fluoro-2-methylpropyl)-3-methyl-2,3,4,9-tetrahydro-1H-beta-carbolin-1-yl]pyrimidin-2-yl}piperidin-4-yl)ethyl]piperazin-1-yl}-7-methoxy-1-oxo-1,3-dihydro-2H-isoindol-2-yl)piperidine-2,6-dione], the IC50 was 1.5 nM.

Turning to `COc1cc(N2CCN(CCCC3CCN(c4ncc([C@@H]5c6[nH]c7ccccc7c6C[C@@H](C)N5CC(C)(C)F)cn4)CC3)CC2)cc2c1C(=O)N(C1CCC(=O)NC1=O)C2` (stereo partly drawn) [Example 13, 3-(5-{4-[3-(1-{5-[(1R,3R)-2-(2-fluoro-2-methylpropyl)-3-methyl-2,3,4,9-tetrahydro-1H-beta-carbolin-1-yl]pyrimidin-2-yl}piperidin-4-yl)propyl]piperazin-1-yl}-7-methoxy-1-oxo-1,3-dihydro-2H-isoindol-2-yl)piperidine-2,6-dione], the IC50 turned out to be 3 nM.

On to `C[C@@H]1Cc2c([nH]c3ccccc23)[C@@H](c2cnc(N3CCC(CN4CCC(CN5CCN(c6ccc7c(c6)CN(C6CCC(=O)NC6=O)C7=O)CC5)CC4)CC3)nc2)N1CC(C)(C)F` (stereo partly drawn) [Example 14, 3-{5-[4-({1-[(1-{5-[(1R,3R)-2-(2-fluoro-2-methylpropyl)-3-methyl-2,3,4,9-tetrahydro-1H-beta-carbolin-1-yl]pyrimidin-2-yl}piperidin-4-yl)methyl]piperidin-4-yl}methyl)piperazin-1-yl]-1-oxo-1,3-dihydro-2H-isoindol-2-yl}piperidine-2,6-dione], for which the IC50 is 8.5 nM.

Turning to `C[C@@H]1Cc2c([nH]c3ccccc23)[C@@H](c2cnc(N3CCC(CCN4CCN(c5ccc6c(c5)CN(C5CCC(=O)NC5=O)C6=O)CC4)CC3)nc2)N1CC(F)(F)F` (stereo partly drawn) [Example 15, 3-(5-{4-[2-(1-{5-[(1R,3R)-3-methyl-2-(2,2,2-trifluoroethyl)-2,3,4,9-tetrahydro-1H-beta-carbolin-1-yl]pyrimidin-2-yl}piperidin-4-yl)ethyl]piperazin-1-yl}-1-oxo-1,3-dihydro-2H-isoindol-2-yl)piperidine-2,6-dione], the IC50 amounted to 3.7 nM.

Take `C[C@@H]1Cc2c([nH]c3ccccc23)[C@@H](c2cnc(N3CCC(CN(C)C4CN(CC5CCN(c6ccc7c(c6)CN(C6CCC(=O)NC6=O)C7=O)CC5)C4)CC3)nc2)N1CC(C)(C)F` (stereo partly drawn) [Example 16, 3-(5-{4-[(3-{[(1-{5-[(1R,3R)-2-(2-fluoro-2-methylpropyl)-3-methyl-2,3,4,9-tetrahydro-1H-beta-carbolin-1-yl]pyrimidin-2-yl}piperidin-4-yl)methyl](methyl)amino}azetidin-1-yl)methyl]piperidin-1-yl}-1-oxo-1,3-dihydro-2H-isoindol-2-yl)piperidine-2,6-dione]: the 50% inhibitory concentration (IC50) was determined as 3 nM.

As to `C[C@@H]1Cc2c([nH]c3ccccc23)[C@@H](c2cnc(N3CCC4(CCN(CCC5CCN(c6ccc7c(c6)CN(C6CCC(=O)NC6=O)C7=O)CC5)CCO4)CC3)nc2)N1CC(C)(C)F` (stereo partly drawn) [Example 17, 3-(5-{4-[2-(3-{5-[(1R,3R)-2-(2-fluoro-2-methylpropyl)-3-methyl-2,3,4,9-tetrahydro-1H-beta-carbolin-1-yl]pyrimidin-2-yl}-7-oxa-3,10-diazaspiro[5.6]dodecan-10-yl)ethyl]piperidin-1-yl}-1-oxo-1,3-dihydro-2H-isoindol-2-yl)piperidine-2,6-dione], the IC50 was 13.8 nM.

In the case of `C[C@@H]1Cc2c([nH]c3ccccc23)[C@@H](c2cnc(N3CCC4(CCN(CC5CCN(c6ccc7c(c6)CN(C6CCC(=O)NC6=O)C7=O)CC5)CCO4)CC3)nc2)N1CC(C)(C)F` (stereo partly drawn) [Example 18, 3-(5-{4-[(3-{5-[(1R,3R)-2-(2-fluoro-2-methylpropyl)-3-methyl-2,3,4,9-tetrahydro-1H-beta-carbolin-1-yl]pyrimidin-2-yl}-7-oxa-3,10-diazaspiro[5.6]dodecan-10-yl)methyl]piperidin-1-yl}-1-oxo-1,3-dihydro-2H-isoindol-2-yl)piperidine-2,6-dione], the 50% inhibitory concentration (IC50) was found to be 9.5 nM.

For the compound `C[C@@H]1Cc2c([nH]c3ccccc23)[C@@H](c2cnc(N3CCC(CN4CCOC5(CC4)CCN(c4ccc6c(c4)CN(C4CCC(=O)NC4=O)C6=O)CC5)CC3)nc2)N1CC(C)(C)F` (stereo partly drawn) [Example 19, 3-(5-{10-[(1-{5-[(1R,3R)-2-(2-fluoro-2-methylpropyl)-3-methyl-2,3,4,9-tetrahydro-1H-beta-carbolin-1-yl]pyrimidin-2-yl}piperidin-4-yl)methyl]-7-oxa-3,10-diazaspiro[5.6]dodecan-3-yl}-1-oxo-1,3-dihydro-2H-isoindol-2-yl)piperidine-2,6-dione], the 50% inhibitory concentration (IC50) was 5.3 nM.

As to `C[C@@H]1Cc2c([nH]c3ccccc23)[C@@H](c2cnc(N3CCC(CCN4CCOC5(CC4)CCN(c4ccc6c(c4)CN(C4CCC(=O)NC4=O)C6=O)CC5)CC3)nc2)N1CC(C)(C)F` (stereo partly drawn) [Example 20, 3-(5-{10-[2-(1-{5-[(1R,3R)-2-(2-fluoro-2-methylpropyl)-3-methyl-2,3,4,9-tetrahydro-1H-beta-carbolin-1-yl]pyrimidin-2-yl}piperidin-4-yl)ethyl]-7-oxa-3,10-diazaspiro[5.6]dodecan-3-yl}-1-oxo-1,3-dihydro-2H-isoindol-2-yl)piperidine-2,6-dione], the IC50 was 2 nM.
